Measurements taken from patent US20200347039A1, “CRYSTAL FORM OF RENAL OUTER MEDULLARY POTASSIUM CHANNEL INHIBITOR AND PREPARATION METHOD THEREOF” (JIANGSU HENGRUI MEDICINE CO., LTD., priority 2017, published 2020).

Assay: Pharmacokinetic experiment in SD rats after gavage (LC/MS/MS plasma concentration)
Format: in vivo
Conditions: for AUClast: SD rat experiment (5 mg/kg)
[1] = both sexes, rat, plasma, SD rats, po 5.0 mg/kg, suspension in 0.5% CMC-Na
[2] = SD rats, po 5.0 mg/kg, suspension in 0.5% CMC-Na

Question: For `COc1cc(C(=O)NC2CCN(C[C@H](O)c3ccc4c(c3C)COC4=O)CC2)ncc1C#N.O=C(O)C(O)C(O)C(=O)O` [Crystal form III, (R)-5-cyano-N-(1-(2-hydroxy-2-(4-methyl-1-carbonyl-1,3-dihydroisobenzofuran-5-yl)ethyl)piperidin-4-yl)-4-methoxypyridinecarboxamide tartrate], which AUClast is on record?
Answer: 12618 ng·h/mL

Question: And the AUC(0-t) [1]?
Answer: 12600 ng·h/mL

Question: What about the CL/F [1] of the same molecule?
Answer: 6.7 mL/min/kg

Question: And the half-life [1]?
Answer: 4.21 h

Question: What about the Vd/F (both sexes, rat, plasma, SD rats, po 5.0 mg/kg, suspension in 0.5% CMC-Na, read-out: Vz/F_obs) of the same molecule?
Answer: 2.45 L/kg

Question: What does the source list for `COc1cc(C(=O)NC2CCN(C[C@H](O)c3ccc4c(c3C)COC4=O)CC2)ncc1C#N` [free state]?
Answer: AUClast: 9283 ng·h/mL; T1/2 [2]: 3.62 h; Vz/F_obs [2]: 3.019 L/kg; AUC(0-t) [1]: 9280 ng·h/mL
